The source of these data is article PMC8548882, “The Trp-rich Antimicrobial Amphiphiles With Intramolecular Aromatic Interactions for the Treatment of Bacterial Infection” (Frontiers in Microbiology, 2021).

Series [1] deals with P. aeruginosa ATCC 27853 cells. In words: Outer membrane permeabilization, NPN uptake. The format is cell-based, Pseudomonas aeruginosa ATCC 27853. The protocol: The outer membrane permeabilization of peptides was observed by monitoring the fluorescence change of dye 1-N-phenylnaphthylamine (NPN; Dong et al., 2014c). The 10μm NPN (Sigma-Aldrich, Shanghai, China) was first incubated with the P. aeruginosa ATCC 27853 cells (OD600=0.2, suspended in 5mM HEPES buffer supplied with 5mM glucose) for 30min. Afterward, the mixture was subjected to the detection of fluorescence, which served as the background at the excitation wavelength (λ=350nm) and the emission wavelength (λ=420nm). Then the peptides with various concentrations (1μM, 2μM, 4μM, 8μM, 16μM, 32μM, and 64μM) were added into the mixture and the fluorescence was monitored until the value was tended to stable. The %NPN uptake against 10μg/ml polymyxin B was calculated to analyze the outer membrane permeability of peptides.

In another series the test system is S.aureus 25923. It is filed as cell-based, Staphylococcus aureus ATCC 25923. The conditions noted are these: 25923. An excerpt: (§1) The tested strains were kindly provided by the laboratory of Veterinary Microbiology and Immunology, the College of Veterinary Medicine, Northeast Agricultural University (gram-negative bacteria, Salmonella enterica serovar typhimurium C77-31, Salmonella typhimurium ATCC 14028, Escherichia coli ATCC 25922, Pseudomonas aeruginosa ATCC 27853 and gram-positive bacteria, Staphylococcus aureus ATCC 29213, Staphylococcus aureus ATCC 43300, Staphylococcus epidermidis ATCC 12228, Staphylococcus aureus ATCC 25923).
(§2) The famous microtiter dilution, National Committee for Clinical Laboratory Standards, was adopted to measure the antimicrobial ability of the engineering peptides ([Chou et al., 2016]). In brief, the 50μl with serial dilution was incubated with the same volume bacteria (1×10^5CFU/ml in midi-logarithmic phase) in a 96-well plate 18–24h at 37°C. The positive control was the bacteria treated with culture medium and the negative control was merely culture medium. The MICs (minimum inhibitory concentrations) were defined as the lowest concentration of peptides that prevented the production of visible turbidity ([Tossi et al., 2000]).

Another series deals with S.typhimurium 14028. It is filed as cell-based, Salmonella typhimurium ATCC 14028.
Text: as §1

The next series deals with MRSA 43300. The format is cell-based, Staphylococcus aureus ATCC 43300. The following applies: microtiter dilution, 1×10^5CFU/ml, 18–24h at 37°C, visible turbidity.
Text: as §1, §2

In series [2] the test system is P. aeruginosa ATCC 27853 cells. In words: Cytoplasmic membrane depolarization, diSC3-5. It is filed as cell-based, Pseudomonas aeruginosa ATCC 27853. The conditions noted are these: 1/2 MIC, 0s to 1,020s. As to the method:
The cytoplasmic membrane depolarization of peptides was analyzed with membrane potential-sensitive dye DISC3-5 ([Ma et al., 2011]). First, 0.4μM DISC3-5 (Sigma-Aldrich, Shanghai, China) was incubated with the P. aeruginosa ATCC 27853 cells (OD600=0.05) suspended in 5mM HEPES buffer supplied with 20mM glucose for 1h. Then 100mMK^+ was introduced into the mixture for the reason of keeping K^+ concentration equilibration of bacterial cytoplasmic and extracellular conditions. Afterward, the peptides were reacted with the bacterial cells and the fluorescence value was tracked over time to plot the fluorescence curve (excitation λ=622nm, emission λ=670nm).

The test system of a further series is S.typhimurium 7731. The format is cell-based, Salmonella enterica serovar typhimurium C77-31.
Text: as §1

A further series concerns normal skin tissue. The following applies: mouse, in vivo, sc, 5 mg/kg.
A further series deals with P. aeruginosa 27853. It is filed as cell-based, Pseudomonas aeruginosa ATCC 27853. As to the method: The famous microtiter dilution, National Committee for Clinical Laboratory Standards, was adopted to measure the antimicrobial ability of the engineering peptides ([Chou et al., 2016]). In brief, the 50μl with serial dilution was incubated with the same volume bacteria (1×10^5CFU/ml in midi-logarithmic phase) in a 96-well plate 18–24h at 37°C. The positive control was the bacteria treated with culture medium and the negative control was merely culture medium. […] The antimicrobial performance of peptides against P. aeruginosa 27853 cells was further studied under the complicated physiological conditions ([Lyu et al., 2016]). […] The serum was also taken into the consideration for the adverse impact on the antimicrobial effect of peptides.

Series [3] can be described thus: CD spectrum, secondary structure. It is filed as physicochemical. The following applies: 150μM peptide. As to the method:
The circular dichroism (CD) spectrum was further determined by analysis the secondary structure of peptides in different membrane-mimic environments ([Dong et al., 2014b]). The two totally different mimic environments were 10mM PBS and 50% TFE solution and the final concentration of peptides was fixed at 150μM Then the samples were transferred into a rectangular quartz cuvette (1mm path length) and further underwent the scanning of J-820 spectropolarimeter (Jasco, Tokyo, Japan) at the speed of 50nm/min. The wavelengths ranged from 190 to 250nm and were recorded to plot the observed ellipticity curve. The observed value at each time point was the average of three scans. The results were presented of mean residue ellipticity, which was calculated from the observed ellipticity as follows. θM=θobs⋅1000/(c⋅l⋅n); ([Zhu et al., 2014a])

A further series has as its system P. aeruginosa ATCC 27853. Nature of the series: Transmission electron microscope. It is filed as cell-based, Pseudomonas aeruginosa ATCC 27853. The conditions noted are these: MIC (1μM). An excerpt:
The sample for the test of the Transmission Electron Microscope (TEM) was to follow the same procedure as SEM. After the overnight pre-fixation with 2.5% glutaraldehyde, the bacteria was then post-fixed with 2% osmium tetroxide (sealed ampule, Shanghai, China). Afterward, the samples were dehydrated with ethanol at a series of concentrations (50, 70, 90, and 100%) and substituted the 100% ethanol with 50% ethanol+50% acetone, 100% acetone, 50% acetone+50% epoxy resin, and 100% epoxy resin successively. Finally, the samples were sectioned and stained for observation.

Ends that are not written are not given here.

Procedure for normal skin tissue: The potential toxicity of peptides to normal skin tissues was further tested by TUNEL assay ([Huang et al., 2009]). […] The 100μl 100% DMSO treatment served as a positive control, which was well-known for its toxicity to induce skin necrosis. Then, the skin samples were harvested and were subjected to TUNEL assay and counterstain with 4,6-diamidino-2-phenylindole (DAPI).

As for VKKWVKKWVKKWVKKW-NH2 [VW5], the “%NPN uptake against 10μg/ml polymyxin B” value worked out at 9.49% in [1] (peptide 1μM) and 102.91% in series [1] (peptide 64μM). Also, the MIC against S.aureus 25923 stood at 2 µM; in the series on S.typhimurium 14028, 2 µM; in the series with MRSA 43300, 2 µM; with S.typhimurium 7731 it was 1 µM. Also, the “cytoplasmic membrane depolarization, diSC3-5 fluorescence over time” value in series [2] is reported as “dose-dependent effect”. Besides, the “apoptotic cells in epidermal layer (TUNEL)” value with normal skin tissue is reported as “no obvious green fluorescence”. Further, the “change of MIC compared to the control” value in the series with P. aeruginosa 27853 (12.5% serum) is listed as “did not change”. The “increase of MIC compared to the control” value with P. aeruginosa 27853 (50% serum) is “fourfold”. The “secondary structure (CD)” value in series [3] (10mM sodium phosphate buffer) was “unordered conformation”; in [3] (50% TFE), “α-helical tendency”. Also, in the series with P. aeruginosa ATCC 27853, the “ultrastructure (TEM)” value is given as “cellular contents of bacterial cells leaked”.

Usually MIC stands for the least concentration at which growth counts as inhibited. A higher MIC goes with weaker potency.
